Results published in ChEMBL document CHEMBL4052648, “Synthesis and evaluation of c-di-4'-thioAMP as an artificial ligand for c-di-AMP riboswitch” (Bioorg Med Chem, 2017).

How the values were obtained:
[1] = test system: YybT; test: Drug metabolism assessed as recombinant Bacillus subtilis YybT-mediated compound hydrolysis by measuring half life at 100 uM by reversed-phase HPLC method; type: ADME; details: recombinant Bacillus subtilis YybT enzyme
[2] = Binding affinity to Bacillus substilis 5'-32p-labelled 165 nucleotide RNA assessed as reduction in RNA cleavage measured within 40 hrs by PAGE analysis; set-up: species or system Bacillus subtilis; details: read-out: Kd(app)
[3] = Drug level treated with c-di-4'-thioAMP assessed as recombinant Bacillus subtilis YybT-mediated metabolite formation at 100 uM by LRMS analysis; type: ADME
[4] = Drug metabolism assessed as recombinant Bacillus subtilis YybT-mediated ((2R,3S,4R,5R)-5-(6-amino-9H-purin-9-yl)-3-((((2R,3S,4R,5R)-5-(6-amino-9H-purin-9-yl)-3,4-dihydroxytetrahydrothiophen-2-yl)methoxy)(hydroxy)phosphoryloxy)-4-hydroxytetrahydrothiophen-2-yl)methyl dihydrogen phosphate formation at 100 uM by LRMS analysis; type: ADME
[5] = Drug metabolism assessed as recombinant Bacillus subtilis YybT-mediated compound degradation by measuring retention time at 100 uM by reversed-phase HPLC analysis; type: ADME

| half-life at 100 µM [1] | Kd [2] | Drug metabolism [3] | Drug metabolism [4] | Retention_time [5] | SMILES |
| --- | --- | --- | --- | --- | --- |
| 1 h | ≤ 0.0033 µM | – | – | – | Nc1ncnc2c1ncn2[C@@H]1O[C@@H]2CO[P@@](=O)(O)O[C@H]3[C@@H](O)[C@H](n4cnc5c(N)ncnc54)O[C@@H]3CO[P@@](=O)(O)O[C@H]2[C@H]1O |
| – | – | Metabolite_Detected | – | – | Nc1ncnc2c1ncn2[C@@H]1S[C@H](COP(=O)(O)O[C@H]2[C@@H](O)[C@H](n3cnc4c(N)ncnc43)S[C@@H]2COP(=O)(O)O)[C@@H](O)[C@H]1O |
| > 12 h | 34.8 µM | – | Metabolite_Detected | 12.3 min | Nc1ncnc2c1ncn2[C@@H]1S[C@@H]2COP(=O)(O)O[C@H]3[C@@H](O)[C@H](n4cnc5c(N)ncnc54)S[C@@H]3COP(=O)(O)O[C@H]2[C@H]1O |
